In US6825348B2, “Antiviral compounds” (Academia Sinica, priority 2002, dated 2004):

Target: PRPP synthetase (UniProt P0A717)
Assay: PRPP synthetase reaction, conversion to diphosphates and inhibition of AMP phosphorylation
Type: biochemical
Method: Enzymatic Conversion of Acyclic Nucleoside Phosphonates and Nucleotide 5′-Monophosphate Analog to Their Antivirally Active Diphosphates (Triphosphate Equivalents). Substrate affinities of acyclic nucleoside phosphonates 4, 20, 21, and dinucleotide analog 24 for PRPP synthetase as well as their inhibitory effect against the enzyme were evaluated according to the established procedures. See, e.g., Balzarini et al. (1991) J. Biol. Chem. 266: 8686-8689 and references cited therein. The assays were then terminated after 4 h by the addition of MeOH. HPLC on an anion-exchange Partisphere column was used to analyze the formation of […] 21pp, PMEApp, 4pp, 20pp, and 24pp.

[1] = conversion to diphosphate by PRPP synthetase

SMILES | Vmax [1] [μmol/unit/h] | Vmax (phosphorylation by PRPP synthetase, no unit in text) | substrate affinity for PRPP synthetase, times less than that of PMEA 4 [times]
Nc1ncnc2c1ncn2[C@@H]1O[C@H](COP(=O)(O)O)[C@@H](O)[C@H]1O [AMP 21, adenosine 5′-monophosphate, reference compound] | 14.270 | 14 | 
Nc1ncnc2ncn(CCOCP(=O)(O)O)c12 [Compound 20, 7-[2-(Phosphonomethoxy)ethyl]adenine] | 0.013 |  | 4
Nc1ncnc2c1ncn2CCOCP(=O)(O)O [PMEA 4, 9-[2-(phosphonomethoxy)ethyl]adenine, reference compound] | 0.096 |  | 
